We go through twelve compounds from US12583851B2, “Heteroaryl-substituted pyrazine derivatives as pesticides” (Elanco Animal Health GmbH, priority 2019, dated 2026).

Assay type in all cases: in vivo
Test [1] deals with larvae of the banded cucumber beetle (Diabrotica balteata). The test can be described thus: Diabrotica balteata spray test. Particulars: 168 h, after 7 days, read-out: efficacy (seedling growth); for pest or weed control at 6.4 µg/disc, 20 g/ha: 20 g/ha (=6.4 μg/well); for pest or weed control at 32 µg/disc, 100 g/ha: 100 g/ha (=32 μg/well). In short, it runs like this:
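Efficacy was read 7 days after infesting each unit with 10–20 banded cucumber beetle larvae, as % of seedlings growing like untreated, uninfested controls. Before infestation, wheat seeds germinated 1 day on agar (5 per well) were sprayed with the active ingredient. The active was formulated in acetone/DMF and diluted in water containing emulsifier.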

Test [2] has as its system adult brown dog ticks (Rhipicephalus sanguineus). The test can be described thus: Rhipicephalus sanguineus in-vitro contact test, adult brown dog ticks. To be noted: 48 h, after 48 hours, read-out: efficacy (ticks dead or moribund); for pest or weed control at 5 µg/cm2, 500 g/ha: 5 μg/cm^2 (=500 g/ha). Here is the method: Rhipicephalus sanguineus—In-Vitro Contact Tests with Adult Brown Dog Ticks
9 mg compound is solved in 1 mL acetone and diluted with acetone to the desired concentration. […] the test solution is filled in 25 mL glass test tubes and homogeneously distributed on the inner walls by rotation and tilting on a shaking device (2 h at 30 rpm). With a compound concentration of 900 ppm, an inner surface of 44.7 cm^2 and a homogeneous distribution, a dose of 5 μg/cm^2 is achieved.
After the solvent has evaporated, each test tube is filled with 5-10 adult brown dog ticks (Rhipicephalus sanguineus), closed with a perforated lid and incubated in a lying position at room temperature and relative humidity. After 48 hours efficacy is determined. The ticks are patted on the ground of the tubes and are incubated on a heating plate at 45-50° C. for at most 5 minutes Immotile or uncoordinated moving ticks, which are not able to escape the heat by climbing upwards, are marked as dead or moribund.
An efficacy of 100% means all ticks are dead or moribund; 0% means no ticks are dead or moribund.

Test [3] concerns fall armyworm larvae (Spodoptera frugiperda). The test can be described thus: Spodoptera frugiperda spray test. To be noted: 168 h, maize leaf sections, after 7 days. In short, it runs like this:
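Percent larval kill read at day 7, from 0% (no caterpillars dead) to 100% (all dead). Larvae were placed on dried Zea mays leaf discs previously sprayed with test preparations made from an acetone/DMF solution diluted in 1000 ppm emulsifier-containing water.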

Test [4] has as its system adult engorged female ticks (Rhipicephalus microplus). The test can be described thus: Rhipicephalus (Boophilus) microplus injection test. Particulars: 168 h, 4 μg/animal, egg deposition after 7 days, read-out: efficacy (infertile eggs). Here is the method:
Rhipicephalus (Boophilus) microplus—Injection Test
Solvent: dimethyl sulfoxide
To produce a suitable preparation of active compound, 10 mg of active compound are dissolved in 0.5 mL solvent, and the concentrate is diluted with solvent to the desired concentration.
Five adult engorged female ticks (Rhipicephalus microplus) are injected with 1 μL compound solution into the abdomen. The ticks are transferred into replica plates and incubated in a climate chamber.
After 7 days egg deposition of fertile eggs is monitored. Eggs where fertility is not visible are stored in a climate chamber till hatching after about 42 days. An efficacy of 100% means all eggs are infertile; 0% means all eggs are fertile.

Test [5] relates to Rhipicephalus (Boophilus) microplus larvae (strain Parkhurst, resistant against synthetic pyrethroids). The test can be described thus: Rhipicephalus (Boophilus) microplus in-vitro contact test, larval cattle tick. To be noted: after 48 hours, read-out: efficacy (larvae dead or moribund); for pest or weed control at 1 µg/cm2, 100 g/ha: 1 μg/cm^2 (=100 g/ha); for pest or weed control at 5 µg/cm2, 500 g/ha: 5 μg/cm^2 (=500 g/ha). In short, it runs like this: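 Pyrethroid-resistant larvae (strain Parkhurst), 20–50 per tube, exposed by contact to a dried acetone film of compound (5 μg/cm² at 900 ppm) for 48 h at 27 °C and 85% humidity. Percent dead or moribund larvae scored from negative geotactic behaviour.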

Test [6] concerns adult cat fleas (Ctenocephalides felis). The test can be described thus: Ctenocephalides felis in-vitro contact test, adult cat flea. To be noted: after 48 hours, read-out: efficacy (fleas dead or moribund); for pest or weed control at 1 µg/cm2, 100 g/ha: 1 μg/cm^2 (=100 g/ha); for pest or weed control at 5 µg/cm2, 500 g/ha: 5 μg/cm^2 (=500 g/ha). Here is the method: Ctenocephalides felis—In-Vitro Contact Tests Adult Cat Flea
9 mg compound is solved in 1 ml acetone and diluted with acetone to the desired concentration. 250 μL of the test solution is filled in 25 mL glass test tubes and homogeneously distributed on the inner walls by rotation and tilting on a shaking device (2 h at 30 rpm). With a compound concentration of 900 ppm, an inner surface of 44.7 cm^2 and a homogeneous distribution, a dose of 5 μg/cm^2 is achieved.
After the solvent has evaporated, each test tube is filled with 5-10 adult cat fleas (Ctenocephalides felis), closed with a perforated lid and incubated in a lying position at room temperature and relative humidity. After 48 hours efficacy is determined. The fleas are patted on the ground of the tubes and are incubated on a heating plate at 45-50° C. for at most 5 minutes Immotile or uncoordinated moving fleas, which are not able to escape the heat by climbing upwards, are marked as dead or moribund.
An efficacy of 100% means all fleas are dead or moribund; 0% means no fleas are dead or moribund.

As usually defined, the mortality is the share of the test organisms that died. High values mean a strong lethal effect, low ones a weak lethal effect. Turning to `CC(NC(=O)c1cc(Br)cc(C#N)c1)c1nccnc1-c1ccc(Cl)cn1` (racemic) [Example I-48, (rac)-3-Bromo-N-{1-[3-(5-chloropyridin-2-yl)pyrazin-2-yl]ethyl}-5-cyanobenzamide], in test [1], the pest or weed control at 6.4 µg/disc, 20 g/ha was 80% and the pest or weed control at 32 µg/disc, 100 g/ha is 100%. Besides, the pest or weed control at 5 µg/cm2, 500 g/ha in test [2] was 80%. Moreover, the mortality at 100 g/ha in test [3] came out at 100%.

With `CC(NC(=O)c1cc(Br)cc(OC(F)(F)F)c1)c1nccnc1-c1nccs1` (racemic) [Example I-53, (rac)-3-Bromo-N-{1-[3-(1,3-thiazol-2-yl)pyrazin-2-yl]ethyl}-5-(trifluoromethoxy)benzamide], in test [1], the pest or weed control at 6.4 µg/disc, 20 g/ha stood at 80% and the pest or weed control at 32 µg/disc, 100 g/ha is 100%. In addition, the pest or weed control at 0.004 mg in test [4] was determined as 80%.

Take `CC(NC(=O)c1cc(C#N)cc(C(F)(F)F)c1)c1nccnc1-c1nccs1` (racemic) [Example I-56, (rac)-3-Cyano-N-{1-[3-(1,3-thiazol-2-yl)pyrazin-2-yl]ethyl)-5-(trifluoromethyl)benzamide]: in test [1], the pest or weed control at 6.4 µg/disc, 20 g/ha came to 100% and the pest or weed control at 32 µg/disc, 100 g/ha came to 100%. Further, the mortality at 100 g/ha in test [3] was 100%. Further, in test [4], the pest or weed control at 0.004 mg worked out at 100%.

Consider `CC(NC(=O)c1cc(Cl)cc(C(F)(F)F)c1)c1nccnc1-c1ncc(C(=O)N2CCOCC2)s1` (racemic) [Example I-59, (rac)-3-Chloro-N-[1-{3-[5-(morpholine-4-carbonyl)-1,3-thiazol-2-yl]pyrazin-2-yl}ethyl]-5-(trifluoromethyl)benzamide], for which the pest or weed control at 32 µg/disc, 100 g/ha in test [1] was determined as 100%. Moreover, the pest or weed control at 5 µg/cm2, 500 g/ha in test [2] was 100%. For the same compound, the mortality at 100 g/ha in test [3] amounted to 83%. For the same compound, in test [5], the pest or weed control at 1 µg/cm2, 100 g/ha came to 100% and the pest or weed control at 5 µg/cm2, 500 g/ha turned out to be 100%.

For `CC(NC(=O)c1cc(C(F)(F)F)cc(C(F)(F)F)c1)c1nccnc1-c1ncc(C(=O)N2CCCCC2)s1` (racemic) [Example I-64, (rac)-N-[1-{3-[5-(Piperidine-1-carbonyl)-1,3-thiazol-2-yl]pyrazin-2-yl}ethyl]-3,5-bis(trifluoromethyl)benzamide], the pest or weed control at 5 µg/cm2, 500 g/ha in test [2], in test [6] and in test [5] was 100% each time. The pest or weed control at 1 µg/cm2, 100 g/ha in test [6] and in test [5] was 100% each time. Also, the pest or weed control at 0.004 mg in test [4] worked out at 100%.

Consider `CC(NC(=O)c1cc(C(F)(F)F)cc(C(F)(F)F)c1)c1nccnc1-c1ncc(C(=O)N2C[C@@H](C)O[C@@H](C)C2)s1` (mixture of isomers) [Example I-66, (rac)-N-[1-(3-{5-[(cis)-2,6-Dimethylmorpholine-4-carbonyl]-1,3-thiazol-2-yl}pyrazin-2-yl)ethyl]-3,5-bis(trifluoromethyl)benzamide], for which the pest or weed control at 6.4 µg/disc, 20 g/ha in test [1] was found to be 100%. Moreover, the pest or weed control at 32 µg/disc, 100 g/ha in test [1] turned out to be 100%. Moreover, the pest or weed control at 5 µg/cm2, 500 g/ha stood at 80% in test [2], 100% in test [6] and 100% in test [5]. In addition, the pest or weed control at 1 µg/cm2, 100 g/ha in test [6] and in test [5] was 100% throughout. This compound registered a mortality at 100 g/ha in test [3] of 100%. Moreover, the pest or weed control at 0.004 mg in test [4] was 80%.

For `CC(NC(=O)c1cc(C(F)(F)F)cc(C(F)(F)F)c1)c1nccnc1-c1ncc(C(=O)N2CCCOCC2)s1` (racemic) [Example I-68, (rac)-N-[1-{3-[5-(1,4-Oxazepane-4-carbonyl)-1,3-thiazol-2-yl]pyrazin-2-yl}ethyl]-3,5-bis(trifluoromethyl)benzamide], the pest or weed control at 32 µg/disc, 100 g/ha in test [1] was determined as 100%. The pest or weed control at 5 µg/cm2, 500 g/ha in test [2], in test [6] and in test [5] was 100% throughout. Besides, the pest or weed control at 1 µg/cm2, 100 g/ha in test [6] and in test [5] was 100% throughout.

With `CCN(C)C(=O)c1cnc(-c2nccnc2C(C)NC(=O)c2cc(C(F)(F)F)cc(C(F)(F)F)c2)s1` (racemic) [Example I-72, (rac)-2-(3-{1-[3,5-Bis(trifluoromethyl)benzamido]ethyl}pyrazin-2-yl)-N-ethyl-N-methyl-1,3-thiazole-5-carboxamide], in test [1], the pest or weed control at 6.4 µg/disc, 20 g/ha was 100% and the pest or weed control at 32 µg/disc, 100 g/ha worked out at 100%. Besides, the pest or weed control at 5 µg/cm2, 500 g/ha in test [2] was 80%. In test [3], this compound yielded a mortality at 100 g/ha of 100%. Also, in test [5], the pest or weed control at 1 µg/cm2, 100 g/ha is 100% and the pest or weed control at 5 µg/cm2, 500 g/ha came to 100%.

Take `CC(NC(=O)c1cc(Br)cc(OC(F)(F)F)c1)c1nccnc1-n1cc(C(F)(F)F)cn1` (racemic) [Example I-94, (rac)-3-Bromo-5-(trifluoromethoxy)-N-[1-{3-[4-(trifluoromethyl)-1H-pyrazol-1-yl]pyrazin-2-yl}ethyl]benzamide]: the pest or weed control at 32 µg/disc, 100 g/ha in test [1] was determined as 100%. In test [2], the pest or weed control at 5 µg/cm2, 500 g/ha is 80%. For the same compound, in test [3], the mortality at 100 g/ha came to 100%. In addition, in test [5], the pest or weed control at 1 µg/cm2, 100 g/ha came to 100% and the pest or weed control at 5 µg/cm2, 500 g/ha was determined as 100%.

On to `CC(NC(=O)c1cc(Cl)cc(S(C)(=O)=O)c1)c1nccnc1-n1cc(C#N)cn1` (racemic) [Example I-103, (rac)-3-Chloro-N-{1-[3-(4-cyano-1H-pyrazol-1-yl)pyrazin-2-yl]ethyl}-5-(methanesulfonyl)benzamide], for which, in test [1], the pest or weed control at 6.4 µg/disc, 20 g/ha came out at 100% and the pest or weed control at 32 µg/disc, 100 g/ha was 100%. The pest or weed control at 5 µg/cm2, 500 g/ha in test [2] is 80%. The pest or weed control at 5 µg/cm2, 500 g/ha in test [6] worked out at 80%. The same compound had a mortality at 100 g/ha in test [3] of 100%. For the same compound, in test [5], the pest or weed control at 1 µg/cm2, 100 g/ha was 90% and the pest or weed control at 5 µg/cm2, 500 g/ha came out at 90%.

`CC(NC(=O)c1cc(C(F)(F)F)cc(C(F)(F)F)c1)c1nccnc1-n1cc(C(=O)N2C[C@@H](C)O[C@@H](C)C2)cn1` (mixture of isomers) [Example I-138, (rac)-N-[1-(3-{4-[(cis)-2,6-Dimethylmorpholine-4-carbonyl]-1H-pyrazol-1-yl}pyrazin-2-yl)ethyl]-3,5-bis(trifluoromethyl)benzamide]: the pest or weed control at 32 µg/disc, 100 g/ha in test [1] was found to be 100%. For the same compound, the pest or weed control at 1 µg/cm2, 100 g/ha in test [2] (1 μg/cm^2 (=100 g/ha)) and in test [5] was 100% in each case. The pest or weed control at 5 µg/cm2, 500 g/ha in test [2] and in test [5] was 100% throughout. The compound also returned a mortality at 100 g/ha in test [3] of 100%.

On to `CC(NC(=O)c1cc(Cl)cc(OC(F)(F)F)c1)c1nccnc1-c1ccc(Cl)cn1` (centres unmarked) [Example I-21], for which, in test [1], the pest or weed control at 6.4 µg/disc, 20 g/ha was determined as 100% and the pest or weed control at 32 µg/disc, 100 g/ha amounted to 100%. In test [3], this compound gave a mortality at 100 g/ha of 100%. For the same compound, the pest or weed control at 0.004 mg in test [4] is 80%.
